Assay results from patent publication US20240350489A1, “LOU064 FOR TREATING MULTIPLE SCLEROSIS” (NOVARTIS AG, priority 2021, published 2024).
Entries after “also recorded” stand apart in the source; their conditions may differ.

Tests used:
[1] = single/multiple doses 0.5 mg to 600 mg up to 18 days; 100 and 200 mg b.i.d.; cited from earlier work
BTK [2] = molecular target: T1, BTK (Homo sapiens, UniProt Q06187); test: BTK occupancy in blood as biomarker for dose selection; assay type: in vivo; settings: low doses
T1 construct: simulate BTK occupancy in human spleen/tissues across a range of doses; from tissue; host or cells: human spleen / peripheral tissues (simulated, not sampled)
T1 sequence (Q06187 whole entry): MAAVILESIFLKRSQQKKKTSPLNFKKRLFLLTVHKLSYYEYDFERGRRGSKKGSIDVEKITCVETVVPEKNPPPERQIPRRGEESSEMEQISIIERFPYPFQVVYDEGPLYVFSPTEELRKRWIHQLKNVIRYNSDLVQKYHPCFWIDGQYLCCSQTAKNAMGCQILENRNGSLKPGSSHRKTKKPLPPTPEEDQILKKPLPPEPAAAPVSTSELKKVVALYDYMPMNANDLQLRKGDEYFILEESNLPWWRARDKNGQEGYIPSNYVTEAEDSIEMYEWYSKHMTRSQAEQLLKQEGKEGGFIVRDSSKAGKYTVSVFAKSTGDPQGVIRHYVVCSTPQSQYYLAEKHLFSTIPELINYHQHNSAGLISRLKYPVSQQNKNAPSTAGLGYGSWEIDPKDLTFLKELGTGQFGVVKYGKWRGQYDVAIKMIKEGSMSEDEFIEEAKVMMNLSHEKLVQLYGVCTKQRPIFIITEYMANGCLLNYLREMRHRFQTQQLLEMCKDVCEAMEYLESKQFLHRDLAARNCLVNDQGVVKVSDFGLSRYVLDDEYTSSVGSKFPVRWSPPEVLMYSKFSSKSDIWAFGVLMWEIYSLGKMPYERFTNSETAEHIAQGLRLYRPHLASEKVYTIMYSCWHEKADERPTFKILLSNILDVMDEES
Text: BTK occupancy in blood is not an informative biomarker for the purpose of dose selection due to LOU064 pharmacological properties (irreversible binding). […] Occupancy in tissue may be more representative of the efficacy of LOU064.

BTK [3] = molecular target: T2, BTK (Rattus norvegicus, UniProt Q5S255); settings: female rats, single oral dose of 3 mg/kg; cited from earlier work
T2 construct: from tissue; host or cells: blood and spleen of female rats
T2 sequence (Q5S255 1-660): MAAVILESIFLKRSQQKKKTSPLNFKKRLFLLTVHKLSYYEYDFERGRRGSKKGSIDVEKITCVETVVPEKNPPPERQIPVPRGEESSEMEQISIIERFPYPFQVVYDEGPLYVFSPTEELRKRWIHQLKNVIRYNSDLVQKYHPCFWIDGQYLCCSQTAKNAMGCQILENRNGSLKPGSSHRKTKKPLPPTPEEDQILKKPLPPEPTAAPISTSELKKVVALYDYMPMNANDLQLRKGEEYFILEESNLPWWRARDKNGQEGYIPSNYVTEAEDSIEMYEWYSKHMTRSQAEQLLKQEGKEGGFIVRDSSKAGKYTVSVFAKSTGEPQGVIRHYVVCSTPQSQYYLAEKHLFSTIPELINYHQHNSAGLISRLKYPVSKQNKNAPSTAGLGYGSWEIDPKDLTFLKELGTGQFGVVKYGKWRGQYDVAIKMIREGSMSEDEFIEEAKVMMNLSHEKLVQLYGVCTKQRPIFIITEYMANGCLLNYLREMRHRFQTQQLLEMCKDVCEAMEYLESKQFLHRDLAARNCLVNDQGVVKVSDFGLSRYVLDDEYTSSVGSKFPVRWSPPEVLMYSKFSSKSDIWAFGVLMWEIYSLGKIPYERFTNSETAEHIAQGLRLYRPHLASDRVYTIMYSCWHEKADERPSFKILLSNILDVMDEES

[4] = Phase 2b trial in CSU, efficacy over 12 weeks; assay type: in vivo, human; settings: 25 mg b.i.d. regimen
Method: (§1) In a Phase 2b, randomized, double-blind, placebo-controlled trial evaluating the efficacy and safety of LOU064 over 12 weeks in patients inadequately controlled by Hi-antihistamines, with at least moderately active CSU, patients received LOU064 10 mg q.d. (once daily), 35 mg q.d., 100 mg q.d., 10 mg b.i.d. (twice daily), 25 mg b.i.d., 100 mg b.i.d., or placebo (1:1:1:1:1:1:1 ratio).

HumanMOG-induced EAE = HumanMOG-induced EAE in C57BL/6 mouse, prophylactic b.i.d. dosing; assay type: in vivo
Text: There is no known naturally occurring MS-like disease in rodents or non-human primates. Following immunization of susceptible rodent strains with CNS-specific myelin proteins emulsified in complete Freund's adjuvant (CFA) an induced disease model develops. Experimental autoimmune encephalitis (EAE) mimics many of the pathological phenotypes of MS with focal, demyelinating lesions of the CNS white matter. In the C57BL/6 mouse there are two variants of myelin oligodendrocyte glycoprotein (MOG)-induced EAE depending on whether the human (HumanMOG) or rat (RatMOG) recombinant protein sequences are used (Lyons J.A. et al. (1999) European Journal of Immunology 29:3432-3439; Oliver A. R. et al. (2003) J Immunology 171: 462-468). Minor amino acid residue differences result in HumanMOG-induced EAE being exquisitely B-cell dependent as the APC, whilst RatMOG-induced EAE is B-cell independent and requires dendritic cells as the dominant APC population (Lyons et al 1999; Molnarfi N. et al. (2013) Journal of Experimental Medicine 210(13):2921-2937).
In HumanMOG-induced EAE the BTK inhibitor LOU064 was dosed twice daily (b.i.d.) at 3 mg/kg or 30 mg/kg at 12 hr intervals. Prophylactic dosing of LOU064 was initiated 6 hours prior to MOG/CFA immunization and continued until study end.
EAE was assessed using a scoring system, outlined in Table 1. Clinical scores and body weights were assessed daily throughout the experiment.
According to the animal regulations, humane endpoints for EAE mice were score 3 (>7 days), score 3.5 (>3 days), or immediately if score 4 was reached.
Using a short eight-day (pre-disease onset) EAE protocol, the immune priming mechanisms during the HumanMOG model were investigated.

[5] = system: neuroinflammation signature in microglia; test: scRNA-seq analysis of brains and spinal cords of RatMOG EAE mice; assay type: in vivo, mouse; settings: LOU064 vs controls
Method: 10X Genomics Chromium raw sequencing reads were processed with Cell Ranger [Zheng, G. et al. (2017), Nat Commun 8, 14049]. All subsequent analyses were carried out in R v4.1 and Bioconductor v3.14, loosely following the guidelines in “Orchestrating single-cell analysis with Bioconductor” [Amezquita, R. A. et al (2020), Nat Methods 17, 137-145] and using the framework provided by the scuttle, scater [Davis J McCarthy et al. (2017), Bioinformatics, Vol 33, 8, 1179-1186] and scran [Lun ATL et al. (2016), F1000 Research, 5:2122;
To correct for library size and composition biases, normalization was performed by pooling cells and deconvoluting size factors, followed by a log2 transformation. […]
For each cell type, pseudobulk differential expression analysis was performed using edgeR [Robinson M D et al. (2010), Bioinformatics, 26(1), 139-140], followed by gene set enrichment analysis with fgsea [Gennady Korotkevich et al., doi: https://doi.org/10.1101/060012] and multiple gene set collection from MSigDB [Arthur Liberson et al., Bioinformatics, Vol 27, 12:1739-1740]. A neuroinflammation signature from the Human Phenotype Ontology [Kohler S. et al. (2021) Nucleic Acids Res. 49(D1):D1207-D1217. doi: 10.1093/nar/gkaa1043] was scored with UCell [Andreatta M. et al. (2021), Comput Struct Biotechnol J. 19:3796-3798] and its significance assessed with a one-tailed Mann-Whitney U test.

NF-L = NF-L concentration in serum, RatMOG EAE; assay type: in vivo, mouse; settings: 30 mg/kg b.i.d., vs vehicle
Text: In immunized mice, vehicle or LOU064-treated, the mean NF-L level was markedly higher as compared to naive mice.

[6] = Phase 2b dose range finding core study in CSU subjects, safety; settings: for overall tolerability / safety profile: whole dose range
Method: as §1
In a dose range finding study conducted in CSU subjects the following doses are being tested: 10, 35 and 100 mg q.d. as well as 10, 25 and 100 mg b.i.d. and placebo over 12 weeks.

[7] = core study, any LOU064 dose, listed as remibrutinib

SMILES: C=CC(=O)N(C)CCOc1c(N)ncnc1-c1cc(F)cc(NC(=O)c2ccc(C3CC3)cc2F)c1C [LOU064, N-(3-(6-amino-5-(2-(N-methylacrylamido)ethoxy)pyrimidin-4-yl)-5-fluoro-2-methylphenyl)-4-cyclopropyl-2-fluorobenzamide]
- short-term safety [1]: has been shown in Phase I clinical studies
- BTK occupancy in blood (BTK [2]): reaches full occupancy even at low doses
- BTK occupancy in blood and spleen (BTK [3]): full BTK occupancy
- efficacy in CSU [4]: particularly effective compared to the other doses
- neurologic symptoms and EAE-induced weight loss (HumanMOG-induced EAE; 3 mg/kg b.i.d.): only a fairly weak reduction
- cumulative disease burden (HumanMOG-induced EAE; 30 mg/kg b.i.d.): significantly reduced
- disease incidence / frequency of EAE onset (HumanMOG-induced EAE; 30 mg/kg b.i.d.): reduction in the frequency of EAE onset; also recorded: significantly reduced disease incidence
- peak EAE score (HumanMOG-induced EAE; 30 mg/kg b.i.d.): significantly reduced
- EAE clinical symptoms / EAE scores (HumanMOG-induced EAE; 30 mg/kg p.o. b.i.d.): improvement in EAE scores; also recorded: significantly reduced clinical symptoms of EAE; also recorded: highly effective at inhibiting HumanMOG-induced EAE induction; also recorded: strongly reduced neurologic symptoms
- inflammation-induced cachexia / daily body weight change (HumanMOG-induced EAE; 30 mg/kg p.o. b.i.d.): significantly improved; also recorded: inhibited inflammation-induced cachexia; also recorded: strongly reduced
- tolerability (HumanMOG-induced EAE; 3 and 30 mg/kg p.o. b.i.d.): well tolerated in all animals
- adverse events (HumanMOG-induced EAE; mouse, in vivo): no adverse events were observed with either dose group
- weight gain in immunized mice (inflammation-induced cachexia) (HumanMOG-induced EAE; short eight-day pre-EAE protocol, 30 mg/kg twice daily): improved weight gain
- neuroinflammation gene signature in microglia [5]: significant downregulation across most conditions; also recorded: significantly downregulated
- mean serum NF-L level (NF-L): non-significant trend towards a lower mean NF-L level; also recorded: slightly reduced
- Grade 3 creatinine elevation, patients ([6]; 10 mg q.d., Week 8, after starting a ketogenic diet): One
- Grade 3 neutrophil count decrease ([6]; 35 mg q.d., Week 12): one
- Grade 3 alanine transaminase elevation ([6]; 100 mg q.d., Week 8): one
- deaths ([6]; core study): no deaths
- laboratory findings, including blood cell counts ([6]; core study): no significant laboratory findings
- AE Headache (PT) [6, 7]: 9.7%
- AE Infections and infestations (SOC) [6, 7]: 24.0%
- AE Skin and subcutaneous tissue disorders (SOC) [6, 7]: 16.9%
- Common Terminology Criteria for AEs Grade 3 events (laboratory data) ([6]; core study, in total): three
- patients with ALT>5xULN ([6]; core study, normalised on treatment): 1 patient
- overall tolerability / safety profile [6]: well-tolerated across the whole dose range
- overall tolerability / safety profile ([6]; listed as Remibrutinib): favorable safety profile across the whole dose range
